From US7763596B2, “Selective glucocorticoid receptor agonists” (The University of Manchester, priority 2000, dated 2010)

Key:
IL-8 = test: Repression of endogenous IL-8 in A549s; type: cell-based, human; conditions: A549 cells; compound G at 100 nM, p=0.0076
From the text: (§1) The A549 cell line (ECACC:86012804) is derived from the human lung epithelial cells from a carcinoma. This cell line contains functional endogenous GR and is stimulated by Tumour Necrosis Factor (TNF) to produce IL-8.
In this assay TNF was used to stimulate NFkB activity in a cell line that expressed endogenous GR. The ability of NFkB to induce IL-8 gene transcription could then be repressed by GR in a ligand dependent manner and, therefore, used to measure transrepression.
COS7 cells were transfected with 3 μg NRE-Luc per 10 cm tissue culture dish. The cells were plated out in to 24 well plates after transfection and left for 18 hours to recover before the steroids of FIGS. 1 and 2A were added. After incubation for 3 hours with the steroids, TNF was added to the samples and after another 15 hours an IL-8 assay (R&D systems) was performed on the cell supernatants according to the manufacturers instructions. Briefly, triplicates of 100 μl of a 1:2 dilution of cell supernatant and 100 μl of a known dilution series of IL-8 were added to the wells of a microtitre plate coated with a monoclonal IL-8 antibody, the samples were incubated with a polyclonal biotinylated IL-8 antibody for 1 hour at room temperature and washed. Streptavidin horse radish peroxidase solution was then added to all wells and incubated for 30 mins before being washed. Tetramethyl benzidine (TMB; a chromagen) was added to all the wells and incubated in the dark for 10 mins, the reaction was stopped by the addition of H2SO4 and the absorbance of each well was read on a spectrophotometer using 450 nm as the primary wavelength. Regression analysis was performed on the standard data and the unknowns were expressed as pg/ml of IL-8 in comparison to the standards.

[1] = biological target: T1, GR ligand binding domain / SRC-1 (Homo sapiens, UniProt P04150); test: SRC-1 association assay by mammalian two-hybrid analysis; type: cell-based; conditions: for SRC-1 recruitment at the highest concentration tested: 100 nM
T1 construct: expressed in transfected cells
T1 sequence (P04150 524-758 limits assumed): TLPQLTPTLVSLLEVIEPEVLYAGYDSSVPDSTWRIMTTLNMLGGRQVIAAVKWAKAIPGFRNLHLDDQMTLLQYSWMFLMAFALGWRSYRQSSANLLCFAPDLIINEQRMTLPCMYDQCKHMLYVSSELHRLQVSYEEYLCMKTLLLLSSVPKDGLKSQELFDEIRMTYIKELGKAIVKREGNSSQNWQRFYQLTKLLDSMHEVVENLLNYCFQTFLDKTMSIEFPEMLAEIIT
From the text: SRC-1 is an important co-activator of GR action that associates with the GR in a ligand dependant manner. The ability of SRC-1 to associate with the GR in this manner can be used as a measure of potency of ligand mediated transactivation. To perform this assay plasmids that generated VP16-GR ligand binding domain (LBD) and GAL4-SRC-1 fusion proteins and a GAL4 binding luciferase reporter gene construct were transfected into in a cell line lacking GR and deficient in endogenous SRC-1. The GAL4-SRC-1 fusion protein could bind to specific sites upstream of the luciferase reporter gene construct. If the SRC-1 fusion protein associated with the ligand bound VP16-GRLBD fusion protein then the VP-16 activation domain augmented the luciferase gene expression.

endogenous GR = biological target: T2, endogenous GR (Homo sapiens, UniProt P04150); test: Transrepression assay using endogenous GR in the A549 lung epithelial cell line (TNF, NRE luciferase); type: cell-based; conditions: compound G at 1, 10, 100 and 500 nM
T2 construct: This cell line contains functional endogenous GR; endogenous in cells; host or cells: A549
T2 sequence (P04150 1-777): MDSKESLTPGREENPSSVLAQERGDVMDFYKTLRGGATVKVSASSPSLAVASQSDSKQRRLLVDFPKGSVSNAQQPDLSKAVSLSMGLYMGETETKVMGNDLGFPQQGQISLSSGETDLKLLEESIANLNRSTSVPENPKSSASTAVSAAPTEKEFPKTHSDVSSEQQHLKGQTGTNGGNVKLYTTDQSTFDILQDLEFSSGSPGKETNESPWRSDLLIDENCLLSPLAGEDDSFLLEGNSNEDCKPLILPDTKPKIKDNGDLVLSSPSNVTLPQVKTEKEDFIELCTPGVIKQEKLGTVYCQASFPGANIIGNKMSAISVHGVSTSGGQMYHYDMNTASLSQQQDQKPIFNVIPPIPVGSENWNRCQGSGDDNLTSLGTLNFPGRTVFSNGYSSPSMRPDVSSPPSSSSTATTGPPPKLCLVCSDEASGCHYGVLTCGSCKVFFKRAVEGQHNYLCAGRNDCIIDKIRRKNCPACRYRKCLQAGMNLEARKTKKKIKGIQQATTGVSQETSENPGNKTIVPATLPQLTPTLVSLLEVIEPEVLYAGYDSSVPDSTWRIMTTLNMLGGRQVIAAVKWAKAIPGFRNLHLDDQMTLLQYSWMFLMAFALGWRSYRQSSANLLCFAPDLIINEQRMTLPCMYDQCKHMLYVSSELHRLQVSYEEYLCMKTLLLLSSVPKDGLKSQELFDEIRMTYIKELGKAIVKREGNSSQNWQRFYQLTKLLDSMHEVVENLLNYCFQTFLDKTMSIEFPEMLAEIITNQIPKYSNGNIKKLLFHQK
From the text: as §1
In this assay TNF was used to stimulate NFkB activity in a cell line that expressed endogenous GR. The ability of NFkB to activate an NRE “driving” a luciferase reporter gene could then be repressed by GR in a ligand dependent manner and, therefore, used to measure transrepression.
COS7 cells were transfected with 3 μg NRE-Luc per 10 cm tissue culture dish. The cells were plated out in to 24 well plates after transfection and left for 18 hours to recover before the steroids of FIGS. 1 and 2 were added. Next TNF was added to the samples after 3 hours incubation with the steroids and after another 15 hours the cells were lysed and a luciferase assay was performed.

Row | SRC-1 recruitment, sub-maximal response ([1]; 1, 10 and 100 nM, relative to dexamethasone) | repression of TNF activation of A549 cells (NRE reporter gene) (endogenous GR) | SRC-1 recruitment at the highest concentration tested [1] | Compound | repression of IL-8 production after TNF activation (IL-8) | SRC-1 recruitment compared with dexamethasone ([1]; 1, 10 and 100 nM) | transactivation as measured by SRC-1 recruitment ([1]; 1 and 10 nmolar)
1 | ~50% | exhibited transrepression |  | CC1CC2C3CCC4=CC(=O)C=CC4(C)C3(F)C(O)CC2(C)C12OC(C)(C)OCC2=O (stereo not drawn) [Compound A] | exhibited transrepression |  | 
2 |  | exhibited transrepression |  | CC1CC2C3CCC4=CC(=O)C=CC4(C)C3(F)C(O)CC2(C)C1(O)C(=O)COC(=O)c1ccc(F)cc1 (stereo not drawn) [Compound D] | exhibited transrepression | recruited SRC-1 to the same extent as dexamethasone | 
3 |  |  | significant response | CCCCCCNC(=O)OCC(=O)C1(O)C(C)CC2C3CCC4=CC(=O)C=CC4(C)C3(F)C(O)CC21C (stereo not drawn) [Compound T] |  |  | 
4 |  |  | significant response | CCCOC(=O)C1(O)C(C)CC2C3CCC4=CC(=O)C=CC4(C)C3(F)C(O)CC21C (stereo not drawn) [R] |  |  | 

Row | Compound | SRC-1 recruitment, sub-maximal response ([1]; 1, 10 and 100 nM, relative to dexamethasone) | repression of TNF activation of A549 cells (NRE reporter gene) (endogenous GR) | SRC-1 recruitment at the highest concentration tested [1] | repression of IL-8 production after TNF activation (IL-8) | SRC-1 recruitment compared with dexamethasone ([1]; 1, 10 and 100 nM) | transactivation as measured by SRC-1 recruitment ([1]; 1 and 10 nmolar)
5 | CCCNC(=O)C1(O)C(C)CC2C3CCC4=CC(=O)C=CC4(C)C3(F)C(O)CC21C (stereo not drawn) [Compound G] |  | repressed at least as well as dexamethasone and also had a “left shifted” response with greater maximal repression | no SRC-1 recruitment | repressed IL-8 production better than dexamethasone |  | no transactivation as measured by SRC-1 recruitment
